Experimental data from patent US6600063B1, “Derivatives of phenyl 4-aminosalicylate and method of making the same” (priority 2000, dated 2003).
Values after ≈ are worked out from the molar mass of the structure shown.

Assays:
[1] = tested on: Mycobacterium tuberculosis H37Rv (ATCC 27294); test: Microplate Alamar Blue Assay (MABA), primary screen and MIC against M. tuberculosis H37Rv; assay type: cell-based; set-up: MIC H37Rv: unit not given beside the values; details: for MIC: Mycobacterium tuberculosis, M. tuberculosis H37Rv; for MIC / % Inhibition: ASSAY ALAMAR; for % Inhibition: primary screen at 12.5 or 6.25 ug/ml
[2] = tested on: M. tuberculosis Erdman (ATCC 35801) in mouse bone marrow macrophages; test: Killing of M. tuberculosis Erdman in monolayers of mouse bone marrow macrophages (EC90, EC99); assay type: cell-based, Mycobacterium tuberculosis
[3] = tested on: Mycobacterium tuberculosis H37Rv (ATCC 27294); test: BACTEC 460 radiometric system, primary screen and MIC against M. tuberculosis H37Rv; assay type: cell-based; details: for MIC: Mycobacterium tuberculosis; for % Inhibition: primary screen at 12.5 or 6.25 ug/ml
M. tuberculosis Erdman = test: MIC in the MABA against drug-sensitive strain Erdman; assay type: cell-based; details: Mycobacterium tuberculosis, read-out: MIC ERDMA (ug/ml)
M.tuberculosis (H37Rv) = details: compared with 4-aminosalicylic acid; cited from earlier work
[4] = primary screen, BACTEC, M. tuberculosis H37Rv, read-out: MIC

In the case of `O=C(Oc1ccccc1)c1ccc(/C=N/c2ccccc2[N+](=O)[O-])cc1O` [SAMPLE ID 139235], the MIC [1] is reported as 0.025 µg/mL (≈ 0.069 µM) and the “% Inhibition” value [1] is reported as 97%.

In the case of `O=C(Oc1ccccc1)c1ccc(NC(=S)Nc2ccccc2)cc1O` [SAMPLE ID 131326], the EC99 ([2]; 99% reduction in colony forming units at 7 days, bactericidal activity) is reported as 0.92 µg/mL, the EC90 ([2]; Mycobacterium tuberculosis, Bone marrow macrophage, 168 h, 90% reduction in colony forming units at 7 days, bacteriostatic activity) is reported as 0.203 µg/mL (≈ 0.557 µM) and the MIC ([3]; Table 4, assay not given, read-out: MIC) is reported as 0.2 µg/mL (≈ 0.549 µM). The MIC ([3]; actual MIC, ASSAY BACTEC, M. tuberculosis H37Rv, read-out: MIC) was 0.2 µg/mL (≈ 0.549 µM), the MIC [3, 4] was < 12.5 µg/mL and the “% Inhibition” value ([3]; BACTEC, M. tuberculosis H37Rv) was 100%. For the same compound, the MIC (M. tuberculosis Erdman) was 0.2 µg/mL (≈ 0.549 µM) and the “MIC H37Rv” value ([1]; Table 9 strain panel, drug-sensitive strain H37Rv) was 1.56.

Compound `CO[C@H]1/C=C/O[C@@]2(C)Oc3c(C)c(O)c4c(O)c(c(/C=N/N5CCN(C)CC5)c(O)c4c3C2=O)NC(=O)/C(C)=C\C=C\[C@H](C)[C@H](O)[C@@H](C)[C@@H](O)[C@@H](C)[C@H](OC(C)=O)[C@@H]1C` [RMP, rifampin, reference compound] has an MIC ([3]; reference drug in the COMMENT column of the primary screen, read-out: MIC of RMP vs. M. tuberculosis) of 0.25 µg/mL.

With `O=C(Oc1ccccc1)c1ccc(/N=C/c2ccc([N+](=O)[O-])cc2)cc1O` [SAMPLE ID 133652] the MIC ([3]; actual MIC, ASSAY BACTEC, M. tuberculosis H37Rv) was 0.1 µg/mL (≈ 0.276 µM), the MIC ([3]; primary screen, BACTEC, M. tuberculosis H37Rv) was < 12.5 µg/mL and the “% Inhibition” value ([3]; BACTEC, M. tuberculosis H37Rv) was 97%.

In the case of `Nc1ccc(C(=O)Oc2ccccc2)c(O)c1` [phenyl 4-aminosalicylate], the “destruction of the virulent strain of M.tuberculosis (H37Rv)” value (M.tuberculosis (H37Rv)) is given as “even better than 4-aminosalicylic acid”.

With `O=Cc1ccc(/C=N/c2ccc(C(=O)Oc3ccccc3)c(O)c2)cc1` [SAMPLE ID 130069] the MIC [3, 4] was < 12.5 µg/mL and the “% Inhibition” value ([3]; BACTEC, M. tuberculosis H37Rv) was 99%.

With `CCC(=O)Nc1ccc(C(=O)Oc2ccccc2)c(OC(=O)CC)c1` [SAMPLE ID 138392] the MIC [1] was 0.39 µg/mL (≈ 1.14 µM) and the “% Inhibition” value [1] was 94%.
